From the NIST ThermoML archive (doi:10.1016/j.jct.2016.09.026)

Legend:
[1] = Crystal
[2] = Molar enthalpy of transition or fusion; settings: Crystal; DSC
[3] = molar heat capacity at constant pressure; settings: 101.33 kPa, Crystal, Small sample (50 mg) DSC
[4] = molar enthalpy of vaporization or sublimation; settings: 351.22 K; Crystal; Static calorimetry

CCCC(=O)c1ccc(O)cc1 [1-(4-hydroxyphenyl)-1-butanone]
Settings | mass density [kg/m3]
[1], 298 K, 101.33 kPa, X-ray diffraction | 1204.5

Settings | Normal melting temperature [°C] | molar heat capacity at constant pressure [J/K/mol]
[1], DTA | 91.6 | –
[3], 288.67 K | – | 219.2
[3], 289.99 K | – | 221.2
[3], 291.29 K | – | 221.3
[3], 291.6 K | – | 222
[3], 292.87 K | – | 223.3
[3], 294.14 K | – | 224.2
[3], 295.4 K | – | 225.7
[3], 296.66 K | – | 227.4
[3], 297.92 K | – | 228.6
[3], 299.17 K | – | 229.2
[3], 300.43 K | – | 231
[3], 301.68 K | – | 232.3
[3], 302.94 K | – | 232.9
[3], 304.19 K | – | 234.6
[3], 305.45 K | – | 234.9
[3], 306.7 K | – | 236.9
[3], 307.95 K | – | 238.6
[3], 309.21 K | – | 239.7
[3], 310.46 K | – | 240.7
[3], 311.71 K | – | 242
[3], 312.96 K | – | 243.7
[3], 314.21 K | – | 244.9
[3], 315.46 K | – | 245.8
[3], 316.71 K | – | 247
[3], 317.96 K | – | 247.7
[3], 319.22 K | – | 249.1
[3], 320.47 K | – | 250.2
[3], 321.72 K | – | 251.4
[3], 322.97 K | – | 253
[3], 324.23 K | – | 254.5
[3], 325.48 K | – | 256.4
[3], 326.73 K | – | 257.1
[3], 327.98 K | – | 258.9
[3], 329.23 K | – | 260.2
[3], 330.48 K | – | 262.1
[3], 331.73 K | – | 263.6
[3], 332.98 K | – | 265.5
[3], 334.23 K | – | 265.9
[3], 335.48 K | – | 267.6
[3], 336.73 K | – | 270.1
[3], 337.98 K | – | 270.4
[3], 339.23 K | – | 272
[3], 340.48 K | – | 274.4
[3], 341.73 K | – | 276
[3], 342.98 K | – | 278.2
[3], 344.23 K | – | 279.7
[3], 345.48 K | – | 281.2
[3], 346.73 K | – | 282.8
[3], 347.98 K | – | 284.5
[3], 349.23 K | – | 287
[3], 350.48 K | – | 289

Settings | Molar enthalpy of transition or fusion [kcal/mol] | molar enthalpy [kcal/mol]
[2] | 5.73 | –
[4] | – | 27.3
